Data: US10793557B2, “Sting agonist compounds” (Merck Sharp & Dohme Corp., priority 2018, dated 2020)

Columns and labels:
full-length WT STING = target: T1, full-length WT STING (Homo sapiens, UniProt Q86WV6, H232R); assay: 3H-cGAMP filtration binding assay (WT STING); settings: for EC50: competition with tritiated cGAMP, WT STING membrane; for inhibition at 2 µM: at 2,000 nM compound
T1 construct: AviTag (after gg linker) (C); HRV3C cleavage site (after gs linker) (C); HIS8 (C); made in house; host or cells: Trichoplusia ni (Hi-Five) insect cells infected with baculovirus (virus generated and amplified in Sf21 cells); used as a washed membrane preparation
How it was run: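 Competitive filtration binding of [3H]cGAMP (16 nM working stock) to T. ni membranes overexpressing full-length WT human STING, 60 min at RT in PBS. Bound radioactivity counted after GF/B filtration; 10-point 1:3 titration, EC50 from 4-parameter fit after control normalisation.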

[1] = tested on: secretion of interferon-beta from THP1 cells; assay: IFN-β secretion in THP1 cell culture (5 h); format: cell-based; settings: Homo sapiens, THP-1, 5 h, 30 uM cGAMP = 100%; for activation at 3 µM: compound at 3 uM, read-out: % Effect relative to 2′3′-cGAMP (@ 3 uM); for activation at 30 µM: compound at 30 μM, read-out: % Effect at 30 μM relative to 2′3′-cGAMP
How it was run: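 Thawed THP1 cells (0.8×10^6/mL, RPMI with 0.5% FBS) exposed to compounds 1.5–30000 nM (0.3% DMSO) for 5 h at 37 °C. Supernatant IFN-β quantified by AlphaLISA. Percent effect normalised to 30 uM cGAMP and DMSO controls; EC50 from 4-parameter fit.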

full-length HAQ STING = target: T2, full-length HAQ STING (Homo sapiens, UniProt Q86WV6, G230A/H232R/R293Q/R71H); assay: 3H-cGAMP filtration binding assay (HAQ STING); settings: for EC50: competition with tritiated cGAMP, HAQ STING membrane
T2 construct: AviTag (after GG linker) (C); HRV3C cleavage site (after GS linker) (C); HIS8 (C); made in house; host or cells: Trichoplusia ni (Hi-Five) insect cells infected with baculovirus (virus generated and amplified in Sf21 cells); used as a washed membrane preparation
How it was run: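 Hi-Five (T. ni) membranes overexpressing the STING variant (2.2 ug/ml working) preincubated with compound 60 min at RT in PBS, then [3H]cGAMP (8 nM working stock) added for 60 min at RT. Bound radioactivity captured on GF/B filters and counted by scintillation; EC50 from 4-parameter fit of control-normalized activity.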

T1 sequence (Q86WV6 with tags, fused parts or gaps H232R): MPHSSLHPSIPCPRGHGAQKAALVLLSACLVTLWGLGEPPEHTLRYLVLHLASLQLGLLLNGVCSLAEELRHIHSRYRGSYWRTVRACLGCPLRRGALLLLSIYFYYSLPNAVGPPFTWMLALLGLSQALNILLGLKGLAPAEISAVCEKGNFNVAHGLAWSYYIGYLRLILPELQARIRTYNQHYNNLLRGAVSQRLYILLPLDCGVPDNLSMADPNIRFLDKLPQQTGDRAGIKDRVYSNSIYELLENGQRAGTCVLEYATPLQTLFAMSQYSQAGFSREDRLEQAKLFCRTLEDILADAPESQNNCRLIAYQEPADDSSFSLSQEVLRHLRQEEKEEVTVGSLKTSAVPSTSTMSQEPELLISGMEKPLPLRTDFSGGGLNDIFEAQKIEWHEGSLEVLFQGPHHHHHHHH
T2 sequence (Q86WV6 with tags, fused parts or gaps R71H/G230A/H232R/R293Q): as the sequence (Q86WV6 with tags, fused parts or gaps H232R) above, with R71H, G230A, R293Q counted along it

Row | EC50 (full-length WT STING) | EC50 (full-length HAQ STING) | inhibition at 2 µM (full-length WT STING) | inhibition at 2 µM (full-length HAQ STING; at 2,000 nM compound) | Compound | activation at 3 µM [1] | activation at 30 µM [1]
1 | 1040 nM | 77 nM | – | – | COc1cc2sc(C(=O)C[C@H](C)C(=O)O)cc2c(F)c1OCCCOc1c(OC)cc2sc(CC[C@H](C)C(=O)O)cc2c1Cl [Example 151, (S)-4-(5-(3-((2-((S)-3-carboxybutyl)-4-chloro-6-methoxybenzo[b]thiophen-5-yl)oxy)propoxy)-4-fluoro-6-methoxybenzo[b]thiophen-2-yl)-2-methyl-4-oxobutanoic acid] | 63% | –
2 | – | – | 3% | 35% | COc1cc2sc(CC[C@H](C)C(=O)O)cc2c(Cl)c1OCCCOc1c(OC)cc2sc(C(=O)C[C@H](C)C(=O)O)cc2c1Cl [Example 152, (S)-4-(5-(3-((2-((S)-3-carboxybutyl)-4-chloro-6-methoxybenzo[b]thiophen-5-yl)oxy)propoxy)-4-chloro-6-methoxybenzo[b]thiophen-2-yl)-2-methyl-4-oxobutanoic acid] | 7% | –
3 | 10 nM | 3 nM | – | – | COc1cc2sc(C(=O)C[C@H](C)C(=O)O)cc2c(Cl)c1OCCOc1c(OC)cc2sc(C(=O)C[C@H](C)C(=O)O)cc2c1Cl [Example 153, (2S,2′S)-4,4′-((ethane-1,2-diylbis(oxy))bis(4-chloro-6-methoxybenzo[b]thiophene-5,2-diyl))bis(2-methyl-4-oxobutanoic acid)] | 137% | –
4 | – | 694 nM | 30% | – | COc1cc2sc(CC[C@H](C)C(=O)O)cc2c(Cl)c1OCCOc1c(OC)cc2sc(C(=O)C[C@H](C)C(=O)O)cc2c1Cl [Example 154, (S)-4-(5-(2-((2-((S)-3-carboxybutyl)-4-chloro-6-methoxybenzo[b]thiophen-5-yl)oxy)ethoxy)-4-chloro-6-methoxybenzo[b]thiophen-2-yl)-2-methyl-4-oxobutanoic acid] | 76% | –
5 | 5 nM | 3 nM | – | – | COc1cc2sc(C(=O)C[C@H](C)C(=O)O)cc2cc1OCCCOc1c(OC)cc2sc(C(=O)C[C@H](C)C(=O)O)cc2c1Cl [Example 155, (S)-4-(5-(3-((2-((S)-3-carboxybutanoyl)-4-chloro-6-methoxybenzo[b]thiophen-5-yl)oxy)propoxy)-6-methoxybenzo[b]thiophen-2-yl)-2-methyl-4-oxobutanoic acid] | 129% | –
6 | 1 nM | 1 nM | – | – | COc1cc2sc(C(=O)C[C@H](C)C(=O)O)cc2c(F)c1OCCCOc1c(OC)cc2sc(C(=O)C[C@H](C)C(=O)O)cc2c1F [Example 156, (2S,2′S)-4,4′-((propane-1,3-diylbis(oxy))bis(4-fluoro-6-methoxybenzo[b]thiophene-5,2-diyl))bis(2-methyl-4-oxobutanoic acid)] | 118% | –
7 | 1 nM | 1 nM | – | – | CNc1cc2sc(C(=O)C[C@H](C)C(=O)O)cc2cc1OCCCOc1c(OC)cc2sc(C(=O)C[C@H](C)C(=O)O)cc2c1F [Example 157, (S)-4-(5-(3-((2-((S)-3-carboxybutanoyl)-4-fluoro-6-methoxybenzo[b]thiophen-5-yl)oxy)propoxy)-6-(methylamino)benzo[b]thiophen-2-yl)-2-methyl-4-oxobutanoic acid] | 63% | –
8 | 32 nM | 2 nM | – | – | COc1cc2sc(CC[C@H](C)C(=O)O)cc2cc1OCCCOc1c(OC)cc2sc(C(=O)C[C@H](C)C(=O)O)cc2c1F [Example 158, (S)-4-(5-(3-((2-((S)-3-carboxybutyl)-6-methoxybenzo[b]thiophen-5-yl)oxy)propoxy)-4-fluoro-6-methoxybenzo[b]thiophen-2-yl)-2-methyl-4-oxobutanoic acid] | – | 43%
9 | 3 nM | 3 nM | – | – | COc1cc2sc(C(=O)C[C@H](C)C(=O)O)cc2nc1OCCCc1c(OC)cc2sc(C(=O)C[C@H](C)C(=O)O)cc2c1F [Example 159, (S)-4-(5-(3-(2-((S)-3-carboxybutanoyl)-4-fluoro-6-methoxybenzo[b]thiophen-5-yl)propoxy)-6-methoxythieno[3,2-b]pyridin-2-yl)-2-methyl-4-oxobutanoic acid] | – | 99%
10 | 6 nM | 1 nM | – | – | COc1cc2sc(C(=O)C[C@H](C)C(=O)O)cc2cc1OCC(C)COc1cc2cc(C(=O)C[C@H](C)C(=O)O)sc2cc1OC [Example 160, (2S,2′S)-4,4′-(((2-methylpropane-1,3-diyl)bis(oxy))bis(6-methoxybenzo[b]thiophene-5,2-diyl))bis(2-methyl-4-oxobutanoic acid)] | – | 18%
11 | 4 nM | 1 nM | – | – | COc1cc2sc(C(=O)CCC(=O)O)cc2cc1OCCCc1c(OC)cc2sc(C(=O)C[C@H](C)C(=O)O)cc2c1F [Example 161, (S)-4-(5-(3-((2-(3-carboxypropanoyl)-6-methoxybenzo[b]thiophen-5-yl)oxy)propyl)-4-fluoro-6-methoxybenzo[b]thiophen-2-yl)-2-methyl-4-oxobutanoic acid] | – | 106%
12 | 4 nM | 1 nM | – | – | COc1cc2sc(C(=O)C[C@H](C)C(=O)O)cc2cc1OCCCc1c(OC)cc2sc(C(=O)C[C@H](C)C(=O)O)cc2c1F [Example 162, (S)-4-(5-(3-(2-((S)-3-carboxybutanoyl)-4-fluoro-6-methoxybenzo[b]thiophen-5-yl)propoxy)-6-methoxybenzo[b]thiophen-2-yl)-2-methyl-4-oxobutanoic acid] | – | 98%
13 | 1 nM | 1 nM | – | – | COc1cc2sc(C(=O)C[C@H](C)C(=O)O)cc2c(F)c1CCCOc1c(OC)cc2sc(C(=O)CCC(=O)O)cc2c1F [Example 163, (S)-4-(5-(3-((2-(3-carboxypropanoyl)-4-fluoro-6-methoxybenzo[b]thiophen-5-yl)oxy)propyl)-4-fluoro-6-methoxybenzo[b]thiophen-2-yl)-2-methyl-4-oxobutanoic acid] | – | 135%
14 | 1 nM | 1 nM | – | – | COc1cc2sc(C(=O)C[C@H](C)C(=O)O)cc2c(F)c1CCCOc1c(OC)cc2sc(C(=O)C[C@H](C)C(=O)O)cc2c1F [Example 164, (S)-4-(5-(3-((2-((S)-3-carboxybutanoyl)-4-fluoro-6-methoxybenzo[b]thiophen-5-yl)oxy)propyl)-4-fluoro-6-methoxybenzo[b]thiophen-2-yl)-2-methyl-4-oxobutanoic acid] | – | 131%
15 | 3 nM | 2 nM | – | – | COc1cc2sc(C(=O)CC(C)(C)C(=O)O)cc2c(F)c1OCCCOc1c(OC)cc2sc(C(=O)CC(C)(C)C(=O)O)cc2c1F [Example 165, 4,4′-((propane-1,3-diylbis(oxy))bis(4-fluoro-6-methoxybenzo[b]thiophene-5,2-diyl))bis(2,2-dimethyl-4-oxobutanoic acid)] | – | 21%
16 | 117 nM | 8 nM | – | – | COc1cc2sc(C(=O)C[C@H](C)C(=O)O)cc2cc1OCCCOc1cc2sc(C(=O)C[C@H](C)C(=O)O)cc2nc1OC [Example 166, (S)-4-(5-(3-((2-((S)-3-carboxybutanoyl)-5-methoxythieno[3,2-b]pyridin-6-yl)oxy)propoxy)-6-methoxybenzo[b]thiophen-2-yl)-2-methyl-4-oxobutanoic acid] | – | 34%
